Measurements published in patent US11419335B2, “N-arylated analogues and uses thereof” (University of Florida Research Foundation, Incorporated, priority 2016, dated 2022).
Like-named read-outs stand apart in the source and are kept apart here. Marks after values point to notes of the source that are not given here.

What was measured:
[1] = test system: human red blood cells (hRBC); test: Hemolysis of red blood cells; format: cell-based
Summary of the method: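 hRBCs (2% suspension) exposed to compounds at 0.2–200 μM (ten-point dose-response) for 1 h at 37 °C; after centrifugation, haemoglobin release read as supernatant OD at 405 nm. DMSO set as 0% and Triton X as 100% haemolysis; HC50 from dose-response curves, three independent experiments.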

[2] = test system: SA-129 (clinical isolate); test: MIC broth microdilution, SA-129; format: cell-based, Staphylococcus aureus
Description: (§1) The minimum inhibitory concentration (MIC) for each tested compound was determined by the broth microdilution method as recommended by the Clinical and Laboratory Standards Institute (CLSI). In a 96-well plate, eleven two-fold serial dilutions of each compound were made in a final volume of 100 μL Luria Broth. Each well was inoculated with ˜10^5 bacterial cells at the initial time of incubation, prepared from a fresh log phase culture (OD600 of 0.5 to 1.0 depending on bacterial strain). […] (MIC values were supported by spectrophotometric readings at OD600). DMSO served as our vehicle and negative control in each microdilution MIC assay. DMSO was serially diluted with a top concentration of 1% v/v.
(§2) Each well was inoculated with ˜10^5 bacterial cells at the initial time of incubation, prepared from a fresh log phase culture (OD600 of 0.5 to 1.0 depending on bacterial strain). […] The concentration range tested for each compound during this study was 0.10 to 100 μM. DMSO served as our vehicle and negative control in each microdilution MIC assay. DMSO was serially diluted with a top concentration of 1% v/v. All MIC values were obtained from a minimum of three independent experiments.

[3] = test system: methicillin-resistant Staphylococcus aureus MRSA-2 (clinical isolate); test: MIC broth microdilution, MRSA-2; format: cell-based
Summary of the method: (§3)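 CLSI broth microdilution in Luria Broth: eleven two-fold compound dilutions (0.10 to 100 μM), each well inoculated with ~10^5 log-phase cells. MIC is the lowest concentration preventing growth after 16 to 18 hours at 37° C, supported by OD600. DMSO vehicle, top 1% v/v.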

[4] = test system: SA-147 (clinical isolate); test: MIC broth microdilution, SA-147; format: cell-based, Staphylococcus aureus
Description: as §1, §2

[5] = test system: methicillin-sensitive Staphylococcus aureus ATCC 29213; test: MIC broth microdilution, S. aureus 29213; format: cell-based
Summary of the method: (§4)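 Broth microdilution per CLSI, with eleven two-fold serial compound dilutions in Luria Broth spanning 0.10 to 100 μM. DMSO vehicle control topped at 1% v/v; at least three independent experiments.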

[6] = test system: MRSA BAA-1707; test: MIC broth microdilution, MRSA BAA-1707; format: cell-based, Staphylococcus aureus
Summary of the method: as §4

[7] = test system: SA-156 (clinical isolate); test: MIC broth microdilution, SA-156; format: cell-based, Staphylococcus aureus
Description: as §1, §2

[8] = test system: MRSA BAA-44; test: MIC broth microdilution, MRSA BAA-44; format: cell-based, Staphylococcus aureus
Description: as §1, §2

[9] = test system: SA-138 (clinical isolate); test: MIC broth microdilution, SA-138; format: cell-based, Staphylococcus aureus
Description: as §1, §2

[10] = test system: Acinetobacter baumannii (ATCC 1794); test: MIC broth microdilution, A. baumannii 1794; format: cell-based
Summary of the method: as §3

[11] = test system: Pseudomonas aeruginosa (PAO1); test: MIC broth microdilution, PAO1; format: cell-based
Summary of the method: as §3

[12] = test system: vancomycin-resistant Enterococcus faecium (VRE strain ATCC 700221); test: MIC broth microdilution, VRE 700221; format: cell-based
Summary of the method: as §3

[13] = test system: MRSA-1 (clinical isolate); test: MIC broth microdilution, MRSA-1; format: cell-based, Staphylococcus aureus
Description: as §1, §2

[14] = test system: methicillin-resistant Staphylococcus epidermidis (MRSE strain ATCC 35984); test: MIC broth microdilution, MRSE 35984; format: cell-based
Summary of the method: as §3

CCCCCCCCCCCCCCCCn1cc[n+](CCO)c1C.[Br-] [Compound 11]
HC50 ([1]; Table 1A): 6.8 µM
RBC HC50 ([1]; Table 4, concentration required to lyse 50% of red blood cells): 6.8 µM
MIC ([2]; Table 1B): 1.56 µM
MIC ([2]; Table 3): 1.56 µM
MIC MRSA-2 ([3]; Table 1A): 1.56 µM
MIC ([3]; Table 1B, read-out: MIC MRSA-2): 0.78 µM
MRSA-2 MIC ([3]; Table 2A): 1.56 µM
MIC MRSA-2 ([3]; Table 3): 1.17^a μM
MIC MRSA-2 ([3]; Table 4): 1.17a micromolar
MIC SA-147 ([4]; Table 1B): 1.17^a μM
MIC SA-147 ([4]; Table 3): 1.17^a μM
MIC S. aureus 29213 ([5]; Table 1B): 1.17^a μM
MIC S. aureus 29213 ([5]; Table 3): 1.17^a μM
MIC ([6]; Table 1B, read-out: MIC MRSA BAA-1707): 0.39 µM
MIC ([6]; Table 2A, read-out: MRSA BAA-1707 MIC): 0.39 µM
MIC ([6]; Table 3, read-out: MIC MRSA BAA-1707): 0.39 µM
MIC MRSA 1707 ([6]; Table 4): 0.39 µM
MIC ([7]; Table 1B): 1.56 µM
MIC ([7]; Table 3): 1.56 µM
MIC ([8]; Table 1B): 1.56 µM
MIC ([8]; Table 3): 1.56 µM
MIC ([9]; Table 1B): 1.56 µM
MIC ([9]; Table 3): 1.56 µM
MIC A. baumannii 1794 ([10]; Table 1A, in µM): 6.25
MIC A. bau. 1794 ([10]; Table 4): 6.25 µM
MIC PAO1 ([11]; Table 1A): > 100 µM
MIC PAO1 ([11]; Table 4): >100 µM
MIC E. faecium VRE 700221 ([12]; Table 1A): 1.56 µM
VRE MIC ([12]; Table 2A): 1.56 µM
MIC VRE 700221 ([12]; Table 4): 1.56 µM
MIC MRSA-1 ([13]; Table 1B): 1.17^a μM
MIC MRSA-1 ([13]; Table 3): 1.17^a μM
MIC S. epidermidis MRSE 35984 ([14]; Table 1A): 0.59^a
MRSE 35984 MIC ([14]; Table 2A): 0.59^a μM
MIC MRSE 35984 ([14]; Table 4): 0.59a micromolar
